Key:
[1] = target: T1, human PRMT1 (Homo sapiens, UniProt Q99873); assay: PRMT1 biochemical assay (3H-SAM Flashplate, peptide substrate); settings: read-out: PRMT1_ IC50
T1 construct: GST-tagged PRMT1; made in house; host or cells: High Five insect cells (baculovirus, pFastBacI)
How it was run: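 FLAG-tagged full-length human PRMT1 (0.5 nM, GST-tagged, insect-cell expressed) preincubated 30 min at RT with compound, then biotinylated histone H4 36-50 peptide (20 nM) plus 200 nM 3H-SAM and 1.5 uM SAM in Bicine pH 7.6, 2% DMSO. 3H-methylated peptide captured on streptavidin Flashplate; IC50 from 3/4-parameter fit.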

[2] = target: PRMT5 (Homo sapiens, UniProt O14744); assay: PRMT5 IC50 (Table 2; no method described); format: biochemical; settings: read-out: PRMT5_ IC50
PRMT5, sequence (O14744 whole entry, species assumed): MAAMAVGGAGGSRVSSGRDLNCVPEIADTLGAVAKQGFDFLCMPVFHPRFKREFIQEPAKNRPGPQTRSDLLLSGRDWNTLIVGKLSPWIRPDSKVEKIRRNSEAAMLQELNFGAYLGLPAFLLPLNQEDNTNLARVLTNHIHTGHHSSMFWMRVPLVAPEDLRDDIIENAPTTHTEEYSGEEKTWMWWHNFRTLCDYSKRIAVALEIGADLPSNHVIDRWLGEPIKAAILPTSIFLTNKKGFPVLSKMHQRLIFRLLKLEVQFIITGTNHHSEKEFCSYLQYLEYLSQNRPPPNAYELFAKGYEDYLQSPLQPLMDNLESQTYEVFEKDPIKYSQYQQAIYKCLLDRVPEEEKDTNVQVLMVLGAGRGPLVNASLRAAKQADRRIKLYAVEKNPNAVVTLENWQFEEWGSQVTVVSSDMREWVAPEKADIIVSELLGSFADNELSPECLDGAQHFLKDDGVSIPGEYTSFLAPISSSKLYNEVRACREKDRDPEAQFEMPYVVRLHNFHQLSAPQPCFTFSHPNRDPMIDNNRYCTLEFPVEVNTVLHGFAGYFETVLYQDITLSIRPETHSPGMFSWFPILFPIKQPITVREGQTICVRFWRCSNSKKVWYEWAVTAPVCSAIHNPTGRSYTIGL
PRMT5, sequence (Q9BQA1 whole entry partner, species assumed): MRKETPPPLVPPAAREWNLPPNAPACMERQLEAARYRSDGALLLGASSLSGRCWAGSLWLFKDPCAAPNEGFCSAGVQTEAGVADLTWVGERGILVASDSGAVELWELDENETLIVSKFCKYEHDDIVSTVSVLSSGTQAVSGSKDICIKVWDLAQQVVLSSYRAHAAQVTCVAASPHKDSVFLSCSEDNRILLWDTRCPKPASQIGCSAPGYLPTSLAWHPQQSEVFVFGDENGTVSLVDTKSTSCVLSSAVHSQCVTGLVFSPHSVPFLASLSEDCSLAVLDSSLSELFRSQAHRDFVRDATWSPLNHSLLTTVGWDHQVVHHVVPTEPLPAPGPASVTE

T1 sequence (Q99873 with tags, fused parts or gaps): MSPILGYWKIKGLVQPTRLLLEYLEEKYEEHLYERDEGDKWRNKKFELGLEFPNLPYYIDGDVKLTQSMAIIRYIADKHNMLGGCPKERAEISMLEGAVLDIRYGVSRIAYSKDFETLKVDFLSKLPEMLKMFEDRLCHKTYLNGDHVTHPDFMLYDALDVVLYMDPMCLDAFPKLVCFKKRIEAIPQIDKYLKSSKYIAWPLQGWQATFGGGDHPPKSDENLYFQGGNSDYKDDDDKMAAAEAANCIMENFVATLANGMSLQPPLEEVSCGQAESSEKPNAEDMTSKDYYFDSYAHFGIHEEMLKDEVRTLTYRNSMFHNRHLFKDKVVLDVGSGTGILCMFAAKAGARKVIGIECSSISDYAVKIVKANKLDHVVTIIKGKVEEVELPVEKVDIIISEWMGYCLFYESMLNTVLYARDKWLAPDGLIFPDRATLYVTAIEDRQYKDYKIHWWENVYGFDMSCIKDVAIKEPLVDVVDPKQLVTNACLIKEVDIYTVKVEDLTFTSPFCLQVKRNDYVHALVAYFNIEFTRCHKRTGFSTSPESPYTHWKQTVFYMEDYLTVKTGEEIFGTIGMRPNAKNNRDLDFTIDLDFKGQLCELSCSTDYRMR

| Compound | IC50 [1] [nM] | IC50 [2] [nM] |
| --- | --- | --- |
| Cc1cc(C)c(CNC(=O)c2cc(-c3ccc(CNCCN(C)C)cc3)nc3c2cnn3C(C)C)c(=O)[nH]1 [Compound 359] | 4660 |  |
| CNCCN(C)Cc1cccc(-c2cc(C(=O)NCCCCC(=O)NCc3c(C)cc(C)[nH]c3=O)c3cnn(C(C)C)c3n2)c1 [Compound 385] | 232 |  |
| Cc1cc(C)c(CNC(=O)c2cc(-c3cccc(CNCCN)c3)nc3c2cnn3C(C)C)c(=O)[nH]1 [Compound 365] | 7490 | 49000 |
| CNCCN(C)Cc1cccc(-c2nc(NCc3nccs3)c3cnn(C4CC4)c3n2)c1 [Compound 2] | 21.7 |  |
| Cc1cc(C)c(CNC(=O)c2cncc(-c3ccc(CN(C)CCN)cc3)c2)c(=O)[nH]1 [Compound 374] | 73.1 | 44300 |
| CC(C)n1ncc2c(C(=O)N(C)CC3CCOCC3)cc(-c3cccc(CN(C)CCN)c3)nc21 [Compound 256] |  | 50000 |
| CNCCN(C)Cc1cccc(-c2cc(C(=O)NCc3c(C)cc(C)[nH]c3=O)c(C)c3[nH]ncc23)c1 [Compound 372] | 59.6 |  |
| CNCCN(C)Cc1ccc(-c2cncc(C(=O)NCc3c(C)cc(C)[nH]c3=O)c2)cc1 [Compound 373] | 64.7 | 14700 |
| COc1nc(C)cc(C)c1CNC(=O)c1cc(-c2cccc(CNCCN)c2)nc2c1cnn2C(C)C [Compound 391] | 1220 | 30500 |
| CNCCN(C)Cc1cccc(-c2cc(C(=O)NCCCC(=O)NCc3c(C)cc(C)[nH]c3=O)c3cnn(C(C)C)c3n2)c1 [Compound 383] | 212 |  |
| CNCCN(C)Cc1ccc(-c2cc(C(=O)NCc3c(C)cc(C)[nH]c3=O)c(C)c3nn(C4CCCC4)cc23)cc1 [Compound 370] | 418 |  |
| CNCCN(C)Cc1cccc(-c2nc(C(=O)NCc3cn4ccsc4n3)c3cnn(C4CC4)c3n2)c1 [Compound 180] |  | 200000 |
| Cc1cc(C)c(CNC(=O)c2cncc(-c3ccc(CNCCN)cc3)c2)c(=O)[nH]1 [Compound 379] | 335 | 2120 |
| CN(CCN)Cc1cccc(-c2ccc(C(=O)NCC3CCOCC3)c(N(C)CC3CC3)c2)c1 [Compound 263] |  | 7730 |
| Cc1cc(C)c(CNC(=O)c2cncc(-c3ccc(CN(C)CCN(C)C)cc3)c2)c(=O)[nH]1 [Compound 378] | 297 | 66600 |
| Cc1cc(C)c(CNC(=O)c2cc(-c3cccc(CN(C)CCN)c3)nc3c2cnn3C(C)C)c(=O)[nH]1 [Compound 360] | 254 | 15400 |
| CNCCN(C)Cc1ccc(-c2cc(C(=O)NCc3c(C)cc(C)[nH]c3=O)c(C)c3n[nH]cc23)cc1 [Compound 362] | 104 |  |
| CNCCN(C)Cc1cccc(-c2cc(C(=O)N(C)Cc3ccccn3)c3cnn(C(C)C)c3n2)c1 [Compound 300] |  | 34300 |
| CNCCN(C)Cc1cccc(-c2cc(C(=O)NCc3c(C)cc(C)[nH]c3=O)c3cnn(C(C)C)c3n2)c1 [Compound 368] | 86.6 |  |
| CNCCN(C)Cc1cccc(-c2cc(C(=O)NCc3ccncc3)c3cnn(C(C)C)c3n2)c1 [Compound 182] |  | 12100 |
| CNCCN(C)Cc1cccc(-c2cc(C(=O)NCCC(=O)NCc3c(C)cc(C)[nH]c3=O)c3cnn(C(C)C)c3n2)c1 [Compound 384] | 220 |  |
| Cc1cc(C)c(CNC(=O)c2cc(CNCCN(C)C)cc3c2cnn3C2CCCC2)c(=O)[nH]1 [Compound 371] | 11800 |  |
| Cc1cc(C)c(CNC(=O)c2cc(-c3cccc(CNCCN)c3)cc3[nH]ncc23)c(=O)[nH]1 [Compound 366] | 2400 | 4200 |
| COc1nc(C)cc(C)c1CNC(=O)c1cc(-c2cccc(CN(C)CCN(C)C)c2)nc2c1cnn2C(C)C [Compound 386] | 1610 |  |
| CNCCN(C)Cc1cccc(-c2cc(C(=O)NCc3c(C)cc(C)[nH]c3=O)c3cnn(C(C)C)c3c2)c1 [Compound 367] | 183 |  |
| CNCCN(C)Cc1cccc(-c2cc(C(=O)NCCCCCC(=O)NCc3c(C)cc(C)[nH]c3=O)c3cnn(C(C)C)c3n2)c1 [Compound 382] | 177 |  |
| Cc1cc(C)c(CNC(=O)c2cc(-c3cccc(CN(C)CCN(C)C)c3)nc3c2cnn3C(C)C)c(=O)[nH]1 [Compound 361] | 4270 |  |
